The term pIC50 denotes the IC50 on a negative log10 scale, so that one unit is a factor of ten. For orientation: melting point means the temperature of the solid-liquid transition.

Series [1] deals with rat paw edema (carrageenan foot edema). As to the kind of experiment: Rat carrageenan foot pad edema test. The class given is in vivo, rat (male Sprague-Dawley). To be noted: dosed orally 1 h before carrageenan, foot volume 3 h after carrageenan. On the procedure:
Rat Carrageenan Foot Pad Edema Test
The carrageenan foot edema test was performed with materials, reagents and procedures essentially as described by winter, et al., (Proc. Soc. Exp. Biol. Med., 111, 544 (1962)). Male Sprague-Dawley rats were selected in each group so that the average body weight was as close as possible. Rats were fasted with free access to water for over sixteen hours prior to the test. The rats were dosed orally (1 mL) with compounds suspended in vehicle containing 0.5% methylcellulose and 0.025% surfactant, or with vehicle alone. One hour later a subplantar injection of 0.1 mL of 1% solution of carrageenan/sterile 0.9% saline was administered and the volume of the injected foot was measured with a displacement plethysmometer connected to a pressure transducer with a digital indicator. Three hours after the injection of the carrageenan, the volume of the foot was again measured. The average foot swelling in a group of drug-treated animals was compared with that of a group of placebo-treated animals and the percentage inhibition of edema was determined (Otterness and Bliven, Laboratory Models for Testing NSAIDs, in Non-steroidal Anti-Inflammatory Drugs, (J. Lombardino, ed. 1985)).
On the technique in general: Carrageenan injected into the paw causes an acute inflammation.

The target of series [2] is T1, COX-2 (UniProt P35354).
T1 sequence (P35354 1-604): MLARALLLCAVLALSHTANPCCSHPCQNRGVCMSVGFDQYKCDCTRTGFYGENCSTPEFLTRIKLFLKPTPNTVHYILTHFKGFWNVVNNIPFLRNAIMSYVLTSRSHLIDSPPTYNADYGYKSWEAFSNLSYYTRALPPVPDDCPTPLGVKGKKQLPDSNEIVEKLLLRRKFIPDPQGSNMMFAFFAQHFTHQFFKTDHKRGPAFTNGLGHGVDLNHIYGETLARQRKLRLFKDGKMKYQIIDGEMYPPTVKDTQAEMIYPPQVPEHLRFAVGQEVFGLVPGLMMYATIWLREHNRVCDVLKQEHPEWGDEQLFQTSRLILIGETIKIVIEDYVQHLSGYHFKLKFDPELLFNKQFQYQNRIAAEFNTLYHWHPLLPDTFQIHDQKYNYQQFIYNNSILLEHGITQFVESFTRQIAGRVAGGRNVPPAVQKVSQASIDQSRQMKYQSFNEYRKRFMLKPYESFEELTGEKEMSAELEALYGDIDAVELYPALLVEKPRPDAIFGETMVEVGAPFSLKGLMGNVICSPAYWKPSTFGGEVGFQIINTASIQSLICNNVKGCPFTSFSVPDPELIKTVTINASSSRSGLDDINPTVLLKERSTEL
As to the kind of experiment: Assay for COX-2 activity in vitro (PGE2 ELISA, recombinant enzyme). The class given is biochemical, human or murine. As to conditions: recombinant COX-2, arachidonic acid 10 μM, pre-incubation 10–20 minutes. The procedure: Evaluation of COX-1 and COX-2 Activity in vitro
The COX-2 inhibit on activity of the compounds or this invention illustrated in the Examples was determined by the following methods. a. Preparation of Recombinant COX Baculoviruses
(§1) Recombinant COX-1 and COX-2 were prepared as described by Gierse et al, [J. Biochem., 305, 479–84 (1995)]. A 2.0 kb fragment containing the coding region of either human or murine COX-1 or human or murine COX-2 was cloned into a BamHI site of the baculovirus transfer vector pVL1393 (Invitrogen) to generate the baculovirus transfer vectors for COX-1 and COX-2 in a manner similar to the method of D. R. O'Reilly et al (Baculovirus Expression Vectors: A Laboratory Manual (1992)). Recombinant baculoviruses were isolated by transfecting 4 μg of baculovirus transfer vector DNA into SF9 insect cells (2×10^8) along with 200 ng of linearized baculovirus plasmid DNA by the calcium phosphate method. See M. D. Summers and G. E. Smith, A Manual of Methods for Baculovirus Vectors and Insect Cell Culture Procedures, Texas Agric. Exp. Station Bull. 1555 (1987). Recombinant viruses were purified by three rounds of plaque purification and high titer (10^7–10^8 pfu/ml) stocks of virus were prepared. For large scale production, SF9 insect cells were infected in 10 liter fermentors (0.5×10^6/ml) with the recombinant baculovirus stock such that the multiplicity of infection was 0.1. After 72 hours the cells were centrifuged and the cell pellet homogenized in Tris/Sucrose (50 mM: 25%, pH 8.0) containing 1% 3-[(3-cholamidopropyl)dimethylammonio]-1-propanesulfonate (CHAPS). The homogenate was centrifuged at 10,000×G for 30 minutes, and the resultant supernatant was stored at −80° C. before being assayed for COX activity. […]
(§2) b. Assay for COX-1 and COX-2 Activity
(§3) COX activity was assayed as PGE2 formed/μg protein/time using an ELISA to detect the prostaglandin released. CHAPS-solubilized insect cell membranes containing the appropriate COX enzyme were incubated in a potassium phosphate buffer (50 mM, pH 8.0) containing epinephrine, phenol, and heme with the addition of arachidonic acid (10 μM). Compounds were pre-incubated with the enzyme for 10–20 minutes prior to the addition of arachidonic acid. Any reaction between the arachidonic acid and the enzyme was stopped after ten minutes at 37° C./room temperature by transferring 40 μl of reaction mix into 160 μl ELISA buffer and 25 μM indomethacin. The PGE2 formed was measured by standard ELISA technology (Cayman Chemical).
On the technique in general: In an ELISA, binding on a coated surface is turned into a signal by an enzyme label.

Series [3] deals with COX-1 (UniProt P23219). As to the kind of experiment: Assay for COX-1 activity in vitro (PGE2 ELISA, recombinant enzyme). It counts as biochemical, human or murine. As to conditions: recombinant COX-1, arachidonic acid 10 μM, pre-incubation 10–20 minutes. The procedure: Evaluation of COX-1 and COX-2 Activity in vitro a. Preparation of Recombinant COX Baculoviruses
as §1, §2, §3

The target of series [4] is T2, 5-lipoxygenase (5-LO) (Homo sapiens, UniProt P09917).
T2 construct: calcium ionophore-induced Leukotriene B4 (LTB4) production in human whole blood; endogenous in cells; host or cells: human whole blood (healthy donors), diluted 1:4 in RPMI 1640
T2 sequence (P09917 1-674): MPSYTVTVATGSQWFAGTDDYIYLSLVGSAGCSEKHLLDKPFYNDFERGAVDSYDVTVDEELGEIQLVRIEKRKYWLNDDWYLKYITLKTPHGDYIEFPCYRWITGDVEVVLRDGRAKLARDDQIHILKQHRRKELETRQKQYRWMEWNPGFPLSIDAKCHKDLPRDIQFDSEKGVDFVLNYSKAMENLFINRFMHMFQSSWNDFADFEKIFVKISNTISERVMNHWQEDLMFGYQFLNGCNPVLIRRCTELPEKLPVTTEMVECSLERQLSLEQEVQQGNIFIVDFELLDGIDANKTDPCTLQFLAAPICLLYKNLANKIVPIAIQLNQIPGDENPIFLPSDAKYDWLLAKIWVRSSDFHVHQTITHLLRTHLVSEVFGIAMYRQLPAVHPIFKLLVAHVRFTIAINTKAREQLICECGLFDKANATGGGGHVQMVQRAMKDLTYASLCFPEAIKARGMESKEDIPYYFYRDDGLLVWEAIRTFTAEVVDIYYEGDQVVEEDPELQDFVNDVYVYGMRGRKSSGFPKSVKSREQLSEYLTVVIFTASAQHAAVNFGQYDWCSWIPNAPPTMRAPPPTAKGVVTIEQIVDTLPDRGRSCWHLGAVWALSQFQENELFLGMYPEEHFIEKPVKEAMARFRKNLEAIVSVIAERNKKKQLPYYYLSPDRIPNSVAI
As to the kind of experiment: Assay for 5-lipoxygenase activity: calcium ionophore-induced LTB4 production in human whole blood. To be noted: A-23187 (20 μg/ml)-induced LTB4 in human whole blood; mean IC50. It counts as cell-based. On the procedure: Assay for 5-Lipoxygenase Activity
The 5-lipoxygenase (5-LO) activity of the compounds were determined by the calcium ionophore-induced Leukotriene B4 (LTB4) production in human whole blood. Venous blood was collected from healthy human donors using heparin as an anti-coagulant. Human blood samples (0.2 ml of a 1:4 dilution in RPMI 1640 medium) were incubated in 96-well culture plates for 15 minutes at 37° C. with test compounds dissolved in ethanol (EtOH; final concentration<1%), or vehicle. Typically 7 concentrations of test compounds were examined in duplicate. A-23187 [Sigma] was added to the blood to a final concentration of 20 μg/ml, and the mixtures were incubated for 10 minutes at 37° C. The reaction was stopped by placing the samples on ice. The samples were then centrifuged at 800×g at 4° C. for 10 minutes to pellet the cells, and the supernatants were recovered for quantitation of LTB4 by LISA (Cayman Chemical Co.; sensitivity 3 pg/ml). IC50's were estimated from a four parameter logistic model with two parameters fixed, the minimum (0% inhibition) and maximum (100% inhibition). The IC50 value is the concentration that produces 50% inhibition between the fixed values of the minimum and maximum. Data is reported as the mean IC50 for each compound.

pIC50: −log10 of the molar value.

For the compound `COC1(c2cc(F)cc(OCc3nc(-c4ccc(F)cc4)c(-c4ccc(S(C)(=O)=O)cc4)o3)c2)CCOCC1` [Example 3, 4-(4-Fluorophenyl)-2-[[3-fluoro-5-(3,4,5,6-tetrahydro-4-methoxy-2H-pyran-4-yl)phenoxy)methyl]-5-(4-(methylsulfonyl)phenyl)oxazole], the “RAT PAW EDEMA % Inhibition @ 10 mg/kg body weight” value in series [1] amounted to 15%. Also, the pIC50 in series [2] was > 7.00; in series [3], < 4.00; in series [4] it was 7.70.
`COC1(c2cccc(COCc3nc(-c4ccccc4)c(-c4ccc(S(N)(=O)=O)cc4)o3)c2)CCOCC1` [Example 17, 4-[2-[[[3-(3,4,5,6-Tetrahydro-4-methoxypyran-4-yl)phenylmethyl]oxy]methyl]-4-phenyloxazol-5-yl]benzenesulfonamide]: the melting point was in the range of 62.1 to 71.2 °C. Moreover, the pIC50 in series [2] was 6.30. Moreover, the pIC50 in series [3] was < 4.00. Moreover, the pIC50 in series [4] is 5.01.
`COC1(c2cc(F)cc(OCc3nc(-c4ccc(F)cc4)c(-c4ccc(S(N)(=O)=O)cc4)o3)c2)CCOCC1` [Example 14, 4-[2-[[3-Fluoro-5-(3,4,5,6-tetrahydro-4-methoxypyran-4-yl)phenoxy]methyl]-4-(4-fluorophenyl)oxazol-5-yl]benzenesulfonamide] displayed a melting point of 70 to 72 °C. The pIC50 in series [2] is > 7.00. The pIC50 in series [3] is 5.30. In series [4], the pIC50 is 6.70.
Consider `COC1(c2cccc(CSc3nc(-c4ccccc4)c(-c4ccc(S(N)(=O)=O)cc4)o3)c2)CCOCC1` [Example 21], for which the melting point was 74.7 to 78.5 °C. Further, the negative-log IC50 (pIC50) in series [2] is > 7.00. In series [3], the pIC50 was 5.59. Further, the pIC50 in series [4] is < 5.00.
Consider `COC1(c2cccc(CSCCc3nc(-c4ccccc4)c(-c4ccc(S(N)(=O)=O)cc4)o3)c2)CCOCC1` [Example 19, 4-[2-[[[3-(3,4,5,6-Tetrahydro-4-methoxypyran-4-yl)phenylmethyl]thio]ethyl]-4-phenyloxazol-5-yl]benzenesulfonamide], for which the melting point lay within 60.9 to 66.4 °C. For the same compound, the pIC50 in series [2] is > 7.00. For the same compound, the pIC50 in series [3] is 5.64. Further, the pIC50 in series [4] is < 5.00.

Values taken from patent US6998415B2, “Substituted sulfonylphenylheterocycles as cyclooxygenase-2 and 5-lipoxygenase inhibitors” (Pharmacia Corporation, priority 1996, dated 2006).
